Source: patent US20230024192A1, “Citrate-Functionalized Polymeric Surfactants Based Upon Alkyl Polyglucosides” (Colonial Chemical, Inc., priority 2019, published 2023)

Experiments:
[1] = Salt curves, viscosity build in cleansing formulations (SLS- or AOS-based blends); format: physicochemical; details: incorporated into typical cleansing formulations with SLS or AOS, cocamidopropyl betaine, cocamide MEA; salt curves FIGS. 1 and 2
Protocol: The generalized cleansing formulations are shown in Table 1, where various anionic surfactants, or blends of anionic surfactants, were added to a betaine and an alkanolamide surfactant and water. The balance of the weight in these formulas is water. […] Salts curves were generated for both sulfate-free blends based on AOS, Sodium C14-16 Olefin Sulfonate (FIG. 2), as well as sodium lauryl sulfate-based blends (FIG. 1). The salt curves in FIG. 1 are for the following: 1) Sodium Lauryl Sulfate (SLS) alone: 2) Sodium Lauryl Sulfate:Water, 2:1; 3) Sodium Lauryl Sulfate:Disodium Laurylglucosides Hydroxypropyl Citrate 2:1; and 4) Sodium Lauryl Sulfate:Disodium Laurylglucosides Hydroxypropyl Citrate, 1:1. The salt curves in FIG. 2 are for the following: 1) Sodium C14-16 Olefin Sulfonate (AOS) alone: 2) Sodium C14-16 Olefin Sulfonate:Water, 2:1; 3) Sodium C14-16 Olefin Sulfonate:Disodium Laurylglucosides Hydroxypropyl Citrate, 2:1; and 4) Sodium C14-16 Olefin Sulfonate:Disodium Laurylglucosides Hydroxypropyl Citrate, 1:1. [table] […] Some formulations can achieve desired viscosity levels without any added salt, meeting the demand for that type of claim by some shampoo manufacturers.

Zein = Zein Test, irritation potential of surfactants / cleansing formulations by amount of zein solubilized; parameters: species or system corn; details: anionic cleanser, FIG. 3
Protocol: Surfactants of the current invention were tested for their ability to reduce the irritation potential of cleansing formulations. We used the Zein Test [referenced in J. Surfact.
The Zein test is intended for determining the irritation potential of a surfactant or surfactant-based product. Zein, a corn protein similar to keratin present in the skin and hair, is insoluble in water unless it is denatured by an irritant. In this test, the irritant is a surfactant or surfactant-based product, and irritation potential is predicted by the amount of zein solubilized.

viscosity build [1]: fast and high viscosity build
Substance: Disodium Laurylglucosides Hydroxypropyl Citrate
irritation potential in cleansing formulations (Zein Test) (Zein): effective at reducing irritation potential
